Key:
[1] = test system: synthesis of LTB4 in human whole blood; experiment: LTB4 production inhibition assay in human whole blood (HWB); format: cell-based; details: heparinized human whole blood, 15 min at 37° C., Calcimycin 20 μM 30 min, plasma LTB4 by HTRF
Description: The compounds of the invention are additionally tested in a human whole blood (HWB) assay to determine their ability to inhibit the synthesis of LTB4 in a cellular system. Compounds are combined with heparinized human whole blood and incubated for 15 minutes at 37° C. Calcimycin (20 μM final, prepared in phosphate-buffered saline, pH 7.4) is then added and the mixture is incubated for another 30 minutes at 37° C. The samples are centrifuged for 5 min at low speed (1500×g) and the plasma layer is removed. Plasma LTB4 concentrations are then measured using an antibody-based homogenous time-resolved fluorescence method (CisBio, Bedford, Mass.).

human LTA4 hydrolase = human LTA4 hydrolase (Homo sapiens (Human), UniProt P09960); experiment: LTA4H Enzyme assay (peptidase, Arg-AMC cleavage); format: biochemical; details: LTA4H Enzyme 1 nM, Arg-AMC substrate 50 μM, room temperature 1 h, fluorescence
human LTA4 hydrolase, sequence (P09960 whole entry): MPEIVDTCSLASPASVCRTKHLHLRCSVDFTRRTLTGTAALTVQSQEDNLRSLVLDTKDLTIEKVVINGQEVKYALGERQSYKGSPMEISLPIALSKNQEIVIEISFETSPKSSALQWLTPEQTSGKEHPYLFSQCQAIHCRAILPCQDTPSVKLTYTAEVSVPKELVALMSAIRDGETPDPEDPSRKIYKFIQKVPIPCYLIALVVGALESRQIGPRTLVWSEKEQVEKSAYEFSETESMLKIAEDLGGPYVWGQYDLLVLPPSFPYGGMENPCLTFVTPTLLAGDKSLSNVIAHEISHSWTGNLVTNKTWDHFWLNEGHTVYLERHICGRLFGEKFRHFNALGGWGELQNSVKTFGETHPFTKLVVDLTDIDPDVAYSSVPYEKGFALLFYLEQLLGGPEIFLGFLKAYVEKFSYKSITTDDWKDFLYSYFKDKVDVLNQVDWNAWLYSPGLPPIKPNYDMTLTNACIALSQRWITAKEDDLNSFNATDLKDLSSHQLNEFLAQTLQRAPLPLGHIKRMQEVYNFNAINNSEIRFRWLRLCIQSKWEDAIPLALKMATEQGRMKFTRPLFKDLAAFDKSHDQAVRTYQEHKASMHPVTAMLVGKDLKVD
Description: The compounds of the invention are assessed for the ability to interact with human LTA4 hydrolase in an enzymatic assay that measures the ability of the enzyme to cleave the peptide bond of arginyl-aminomethylcoumarin (Arg-AMC). LTA4H Enzyme (1 nM final), Arg-AMC substrate (50 μM final), and compound are combined in a reaction buffer (50 mM Tris-HCl (pH 7.5), 100 mM KCl, 0.5% bovine serum albumin) at room temperature for 1 h. The formation of product is assessed by measuring the fluorescence of aminomethylcoumarin product (excitation wavelength 380 nm/emission wavelength 460 nm).

| SMILES | IC50 [1] | IC50 (human LTA4 hydrolase) |
| --- | --- | --- |
| OC1CN(Cc2ccc3cc(Oc4ccc(-c5ccn[nH]5)cn4)ccc3c2)C1 [Example 1, 1-{6-[5-(2H-Pyrazol-3-yl)-pyridin-2-yloxy]-naphthalen-2-ylmethyl}-azetidin-3-ol] | 140 nM | 0.43 nM |
| NC(=O)C1CN(Cc2ccc3cc(Oc4ccc(-c5ccn[nH]5)cn4)ccc3c2)C1 [Example 2, 1-{6-[5-(2H-Pyrazol-3-yl)-pyridin-2-yloxy]-naphthalen-2-ylmethyl}-azetidine-3-carboxylic acid amide] | 210 nM | 0.46 nM |
| CC(=O)NC1CN(Cc2ccc3cc(Oc4ccc(-c5ccn[nH]5)cn4)ccc3c2)C1 [Example 3, N-(1-{6-[5-(2H-Pyrazol-3-yl)-pyridin-2-yloxy]-naphthalen-2-ylmethyl}-azetidin-3-yl)-acetamide] | 200 nM | 0.5 nM |
| OCC1CN(Cc2ccc3cc(Oc4ccc(-c5ccn[nH]5)cn4)ccc3c2)C1 [Example 4, (1-{6-[5-(2H-Pyrazol-3-yl)-pyridin-2-yloxy]-naphthalen-2-ylmethyl}-azetidin-3-yl)-methanol] | 160 nM | 0.48 nM |
| O[C@H]1CCN(Cc2ccc3cc(Oc4ccc(-c5ccn[nH]5)cn4)ccc3c2)C1 [Example 5, (S)-1-{6-[5-(2H-Pyrazol-3-yl)-pyridin-2-yloxy]-naphthalen-2-ylmethyl}-pyrrolidin-3-ol] | 130 nM | 0.6 nM |
| O[C@@H]1CCN(Cc2ccc3cc(Oc4ccc(-c5ccn[nH]5)cn4)ccc3c2)C1 [Example 6, (R)-1-{6-[5-(2H-Pyrazol-3-yl)-pyridin-2-yloxy]-naphthalen-2-ylmethyl}-pyrrolidin-3-ol] | 130 nM | 0.57 nM |
| O=C(CO)N1CCN(Cc2ccc3cc(Oc4ccc(-c5ccn[nH]5)cn4)ccc3c2)CC1 [Example 7, 2-Hydroxy-1-(4-{6-[5-(2H-pyrazol-3-yl)-pyridin-2-yloxy]-naphthalen-2-ylmethyl}-piperazin-1-yl)-ethanone] | 120 nM | 0.4 nM |
| O=C1[C@@H](O)CCN1C1CCN(Cc2ccc3cc(Oc4ccc(-c5ccn[nH]5)cn4)ccc3n2)CC1 [Example 8, (S)-3-Hydroxy-1-(1-{6-[5-(2H-pyrazol-3-yl)-pyridin-2-yloxy]-quinolin-2-ylmethyl}-piperidin-4-yl)-pyrrolidin-2-one] | 230 nM | 0.86 nM |
| O=C(CO)NC1CCN(Cc2ccc3cc(Oc4ccc(-c5ccn[nH]5)cn4)ccc3c2)CC1 [Example 9, 2-Hydroxy-N-(1-{6-[5-(2H-pyrazol-3-yl)-pyridin-2-yloxy]-naphthalen-2-ylmethyl}-piperidin-4-yl)-acetamide] | 170 nM | 0.5 nM |
| OC1CC2(C1)CN(Cc1ccc3cc(Oc4ccc(-c5ccn[nH]5)cn4)ccc3c1)C2 [Example 10, 2-{6-[5-(2H-Pyrazol-3-yl)-pyridin-2-yloxy]-naphthalen-2-ylmethyl}-2-aza-spiro[3.3]heptan-6-ol] | 150 nM | 0.48 nM |
| CC1(O)CN(Cc2ccc3cc(Oc4ccc(-c5ccn[nH]5)cn4)ccc3c2)C1 [Example 11, 3-Methyl-1-{6-[5-(2H-pyrazol-3-yl)-pyridin-2-yloxy]-naphthalen-2-ylmethyl}-azetidin-3-ol] | 110 nM | 0.53 nM |
| CC(=O)N[C@@H]1CCN(Cc2ccc3cc(Oc4ccc(-c5ccn[nH]5)cn4)ccc3c2)C1 [Example 12, N-((R)-1-{6-[5-(2H-Pyrazol-3-yl)-pyridin-2-yloxy]-naphthalen-2-ylmethyl}-pyrrolidin-3-yl)-acetamide] | 120 nM | 0.34 nM |
| CC(=O)N[C@H]1CCN(Cc2ccc3cc(Oc4ccc(-c5ccn[nH]5)cn4)ccc3c2)C1 [Example 13, N-((S)-1-{6-[5-(2H-Pyrazol-3-yl)-pyridin-2-yloxy]-naphthalen-2-ylmethyl}-pyrrolidin-3-yl)-acetamide] | 290 nM | 0.79 nM |
| O[C@H]1CCCN(Cc2ccc3cc(Oc4ccc(-c5ccn[nH]5)cn4)ccc3c2)C1 [Example 14, (S)-1-{6-[5-(2H-Pyrazol-3-yl)-pyridin-2-yloxy]-naphthalen-2-ylmethyl}-piperidin-3-ol] | 190 nM | 1.2 nM |
| O[C@@H]1CCCN(Cc2ccc3cc(Oc4ccc(-c5ccn[nH]5)cn4)ccc3c2)C1 [Example 15, (R)-1-{6-[5-(2H-Pyrazol-3-yl)-pyridin-2-yloxy]-naphthalen-2-ylmethyl}-piperidin-3-ol] | 190 nM | 1 nM |
| CN(CCO)Cc1ccc2cc(Oc3ccc(-c4ccn[nH]4)cn3)ccc2c1 [Example 16, 2-(Methyl-{6-[5-(2H-pyrazol-3-yl)-pyridin-2-yloxy]-naphthalen-2-ylmethyl}-amino)-ethanol] | 160 nM | 0.7 nM |
| OCC1CCN(Cc2ccc3cc(Oc4ccc(-c5ccn[nH]5)cn4)ccc3c2)CC1 [Example 17, (1-{6-[5-(2H-Pyrazol-3-yl)-pyridin-2-yloxy]-naphthalen-2-ylmethyl}-piperidin-4-yl)-methanol] | 160 nM | 0.75 nM |
| OC[C@H]1CCN(Cc2ccc3cc(Oc4ccc(-c5ccn[nH]5)cn4)ccc3c2)C1 [Example 18, ((S)-1-{6-[5-(2H-Pyrazol-3-yl)-pyridin-2-yloxy]-naphthalen-2-ylmethyl}-pyrrolidin-3-yl)-methanol] | 160 nM | 0.76 nM |
| CN(Cc1ccc2cc(Oc3ccc(-c4ccn[nH]4)cn3)ccc2c1)[C@@H]1CCN(C(=O)CO)C1 [Example 19, 2-Hydroxy-1-[(R)-3-(methyl-{6-[5-(2H-pyrazol-3-yl)-pyridin-2-yloxy]-naphthalen-2-ylmethyl}-amino)-pyrrolidin-1-yl]-ethanone] | 140 nM | 0.63 nM |
| CN(C(=O)CO)[C@H]1CCN(Cc2ccc3cc(Oc4ccc(-c5ccn[nH]5)cn4)ccc3c2)C1 [Example 20, 2-Hydroxy-N-methyl-N-((S)-1-{6-[5-(2H-pyrazol-3-yl)-pyridin-2-yloxy]-naphthalen-2-ylmethyl}-pyrrolidin-3-yl)-acetamide] | 150 nM | 0.76 nM |
| CN(C(=O)CO)[C@@H]1CCN(Cc2ccc3cc(Oc4ccc(-c5ccn[nH]5)cn4)ccc3c2)C1 [Example 21, 2-Hydroxy-N-methyl-N-((R)-1-{6-[5-(2H-pyrazol-3-yl)-pyridin-2-yloxy]-naphthalen-2-ylmethyl}-pyrrolidin-3-yl)-acetamide] | 100 nM | 0.67 nM |
| OC[C@@H]1CCN(Cc2ccc3cc(Oc4ccc(-c5ccn[nH]5)cn4)ccc3c2)C1 [Example 22, ((R)-1-{6-[5-(2H-Pyrazol-3-yl)-pyridin-2-yloxy]-naphthalen-2-ylmethyl}-pyrrolidin-3-yl)-methanol] | 130 nM | 0.64 nM |
| CN(Cc1ccc2cc(Oc3ccc(-c4ccn[nH]4)cn3)ccc2c1)[C@H]1CCN(C(=O)CO)C1 [Example 23, 2-Hydroxy-1-[(S)-3-(methyl-{6-[5-(2H-pyrazol-3-yl)-pyridin-2-yloxy]-naphthalen-2-ylmethyl}-amino)-pyrrolidin-1-yl]-ethanone] | 170 nM | 0.9 nM |
| COCC(=O)N1CCN(Cc2ccc3cc(Oc4ncc(-c5ccn[nH]5)cn4)ccc3c2)CC1 [Example 24, 2-Methoxy-1-(4-{6-[5-(2H-pyrazol-3-yl)-pyrimidin-2-yloxy]-naphthalen-2-ylmethyl}-piperazin-1-yl)-ethanone] | 290 nM | 2 nM |
| CC(=O)N1CCN(Cc2ccc3cc(Oc4ncc(-c5ccn[nH]5)cn4)ccc3c2)CC1 [Example 25, 1-(4-{6-[5-(2H-Pyrazol-3-yl)-pyrimidin-2-yloxy]-naphthalen-2-ylmethyl}-piperazin-1-yl)-ethanone] | 520 nM | 1.7 nM |
| OC1CCN(Cc2ccc3cc(Oc4ncc(-c5ccn[nH]5)cn4)ccc3c2)CC1 [Example 26, 1-{6-[5-(2H-Pyrazol-3-yl)-pyrimidin-2-yloxy]-naphthalen-2-ylmethyl}-piperidin-4-ol] | 240 nM | 2.3 nM |
| NC(=O)C1CCN(Cc2ccc3cc(Oc4ncc(-c5ccn[nH]5)cn4)ccc3c2)CC1 [Example 27, 1-{6-[5-(2H-Pyrazol-3-yl)-pyrimidin-2-yloxy]-naphthalen-2-ylmethyl}-piperidine-4-carboxylic acid amide] | 200 nM | 1.4 nM |
| CC(=O)NC1CCN(Cc2ccc3cc(Oc4ncc(-c5ccn[nH]5)cn4)ccc3c2)CC1 [Example 28, N-(1-{6-[5-(2H-Pyrazol-3-yl)-pyrimidin-2-yloxy]-naphthalen-2-ylmethyl}-piperidin-4-yl)-acetamide] | 270 nM | 1.8 nM |
| O=C1[C@@H](O)CCN1C1CCN(Cc2ccc3cc(Oc4ncc(-c5ccn[nH]5)cn4)ccc3c2)CC1 [Example 29, (S)-3-Hydroxy-1-(1-{6-[5-(2H-pyrazol-3-yl)-pyrimidin-2-yloxy]-naphthalen-2-ylmethyl}-piperidin-4-yl)-pyrrolidin-2-one] | 220 nM | 1.8 nM |
| N#CC1(C(=O)N2CCN(Cc3ccc4cc(Oc5ccc(-c6ccn[nH]6)cn5)ccc4n3)CC2)CCCC1 [Example 147, 1-(4-{6-[5-(2H-Pyrazol-3-yl)-pyridin-2-yloxy]-quinolin-2-ylmethyl}-piperazine-1-carbonyl)-cyclopentanecarbonitrile] |  | 12 nM |

— patent US9573957B2 (Boehringer Ingelheim International GmbH, priority 2013, dated 2017)
